From paper PMC9228412, “Synthesis and Activity of Triazole-Adenosine Analogs as Protein Arginine Methyltransferase 5 Inhibitors” (Molecules, 2022) come the findings set out here.

Read-outs that look alike come from different tables or passages of the source.

The target of one assay is PRMT1 (Homo sapiens, UniProt Q99873). Put plainly: scintillation proximity assay (SPA) of PRMT1 methyltransferase activity. The assay is classed as biochemical. As to conditions: for remaining activity at 10 µM: 0.5 h, remaining activity of the enzyme, single point SPA test, inhibitor 10 μM, read-out: Relative Activity of PRMT1 at 10 μM. The procedure: (§1) The methyltransferase activities of PRMT5 and PRMT1 in the absence and presence of the synthetic inhibitors were measured by using the scintillation proximity assay (SPA) protocol (Table 1). In the initial test, the inhibitor concentration was set at 10 μM. H4(1–20)K20biotin [Ac-[…](biotin)-NH2] was used as the peptide substrate, at a final concentration of 0.5 μM. ^3H-SAM was used as the methyl donor at 0.5 μM. SAH was used as a control inhibitor. […] Analysis of the biochemical activity results against PRMT5 disclosed a few interesting structure–activity relationship (SAR) trends. […] If the hydroxyl group of 3 was changed to an amine (6), the potency was improved; however, the selectivity was abolished. Generally, compounds that contained positive charges (6, 20, 21, 22, 24) near the triazole ring had further improved potencies.
Inhibitor was dissolved in water to create a 10 mM stock concentration. This was then diluted in buffer (50 mM HEPES pH 8, 10 mM NaCl, 0.5 mM EDTA, 0.5 mM DTT in H2O) to create a series of working concentrations centered around an anticipated IC50. [H]^3-SAM and substrate were diluted together in buffer to working concentrations of […], respectively. To each well in a 96-well plate, 6 μL of the inhibitor solution was added, with negative and positive controls receiving buffer. In total, 6 μL of the [H]^3-SAM/substrate solution was then added to each well. The enzyme was then diluted in buffer to a working concentration of 0.83 μM, and 18 μL was added to each well, with negative controls receiving 18 μL of buffer. The plate was covered, and the reaction was allowed to run for 30 min and was then quenched with the addition of 30 μL of 100% iPrOH followed by 60 μL of 50% iPrOH in H2O. In total, 10 μL of 20 mg/mL streptavidin-coated scintillant beads were added and the plate was read using a MicroBeta (Perkin Elmer, Waltham, MA, USA) plate reader. The CPM counts in the absence of an inhibitor for each data set were considered as 100% activity. In the absence of the enzyme and inhibitor, the CPM counts in each data set were defined as background (0%).
For orientation: Scintillation proximity formats need no separation of bound from free tracer.

The target of a further assay is T1, PRMT5 (Homo sapiens, UniProt O14744).
T1 construct: His-tag; made in house; host or cells: Sf9 insect cells (Bac-to-Bac baculovirus)
Put plainly: scintillation proximity assay (SPA) of PRMT5 methyltransferase activity. Format: biochemical. As to conditions: for remaining activity at 10 µM: 0.5 h, remaining activity of the enzyme, single point SPA test, inhibitor 10 μM, read-out: Relative Activity of PRMT5 at 10 μM. The procedure: as §1
Human recombinant His-tag PRMT5 was co-expressed with His-tag MEP50 using the Bac-to-Bac baculovirus expression system (Invitrogen, Life Technologies, Carlsbad, CA, USA) as previously described. Briefly, pFB-LIC-Bse-PRMT5 and pFB-LIC-Bse-MEP50 were heat shock transformed in the DH10Bac E. coli to obtain the recombinant bacmids, and the bacmids were extracted using the PureLink HiPure Plasmid Miniprep Kit (Invitrogen, Thermo Scientific, Carlsbad, CA, USA). The purity and concentration of the plasmid were measured by a Nanodrop. Sf9 cells were cultured in Sf-900 II SFM medium until the cell density reached 1.5 × 10^6 cells/mL and cell viability was more than 95%. Cells were plated in a 6-well tissue culture plate at a density of 4 × 10^5 cells/mL per well. In total, 2 µg of PRMT5 and MEP50 recombinant bacmid were transfected into each well of cells. After 5 h of transfection, the transfection medium was replaced by 2 mL of Sf-900 II SFM + 100 U P/S per well. The medium was collected and centrifuged at 1000 rpm for 5 min to obtain the supernatant P1 viral stock after 7 days of inoculation at 27.5 °C. To obtain a higher titer of viral stock, P1 viral stock was amplified in a 6-well tissue culture plate containing 2 × 10^6 cells per well. In total, 0.1 MOI of P1 virus stock was added into each well. After 7 days of incubation at 27.5 °C, the cell medium was centrifuged at 1000 rpm for 5 min to obtain the P2 viral stock in the supernatant. The Baculovirus plaque assay was performed to determine the viral titer concentration; the target concentration range was 1 × 10^7–1 × 10^8 IFU/mL.
For the expression of PRMT5 and MEP50, Sf9 insect cells were cultured in suspension at 27.5 °C at a speed of 130 rpm in Expression Systems ESF 921 medium with 100 U P/S. In total, 200 mL of Sf9 cell culture was inoculated with PRMT5 and MEP50 P2 viral stocks when the cell density reached 1.5 × 10^6 cells/mL. After incubation for 72 h at 27.5 °C, the cells were harvested and centrifuged. PRMT5 and MEP50 protein were collected in the cell pellet for further purification. Cell pellets were disrupted twice at 100 psi in 25 mL of cell lysis buffer (50 mM Tris pH 8, 300 mM NaCl, 10% glycerol, 0.1% Triton X-100, 1 mM PMSF). Before the Ni-NTA purification, 10 mL of Ni-NTA resin (EMD Millipore, Burlington, MA, USA) was loaded into a 50 mL column and equilibrated with equilibration buffer (50 mM Tris pH 8, 250 mM NaCl, 30 mM Imidazole, 10% glycerol, 1 mM TCEP, 1 mM PMSF). After 60 min of cell lysate centrifugation at 4 °C at 18,000 rpm, the cell lysate supernatant was incubated with the equilibrated nickel resin. The resin was washed with equilibration buffer and protein was eluted with elution buffer (50 mM Tris pH 8, 250 mM NaCl, 300 mM Imidazole, 10% glycerol, 1 mM TCEP, 1 mM PMSF). For the dialysis of protein, elution samples were loaded into a 10,000 MWCO SnakeSkin (Thermo Scientific, Waltham, MA, USA) dialysis bag in the storage buffer (50 mM Tris pH 8, 250 mM NaCl, 10% glycerol, 1 mM TCEP). […]

The mark [1] stands for this setting: 0.5 μM H4(1–20)K20biotin, 0.5 μM 3H-SAM.
[2] abbreviates: SPA, concentration-dependent, 0.5 μM H4(1–20)K20biotin, 0.5 μM 3H-SAM, read-out: IC50 PRMT5 (converted).
[3] abbreviates: SPA, concentration-dependent, read-out: IC50 PRMT1 (converted).

PRMT1, sequence (Q99873 whole entry, species assumed): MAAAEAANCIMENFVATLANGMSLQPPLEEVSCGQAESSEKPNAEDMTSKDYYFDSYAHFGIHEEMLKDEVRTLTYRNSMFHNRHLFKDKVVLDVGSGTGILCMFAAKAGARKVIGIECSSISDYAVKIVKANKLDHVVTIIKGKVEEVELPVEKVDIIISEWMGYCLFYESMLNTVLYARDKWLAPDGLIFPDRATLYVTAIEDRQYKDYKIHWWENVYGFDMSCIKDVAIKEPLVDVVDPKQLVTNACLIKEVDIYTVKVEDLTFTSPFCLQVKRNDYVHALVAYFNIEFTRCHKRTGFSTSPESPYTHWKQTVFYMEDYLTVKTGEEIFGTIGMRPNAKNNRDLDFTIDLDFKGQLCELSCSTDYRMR
T1 sequence (O14744 whole entry): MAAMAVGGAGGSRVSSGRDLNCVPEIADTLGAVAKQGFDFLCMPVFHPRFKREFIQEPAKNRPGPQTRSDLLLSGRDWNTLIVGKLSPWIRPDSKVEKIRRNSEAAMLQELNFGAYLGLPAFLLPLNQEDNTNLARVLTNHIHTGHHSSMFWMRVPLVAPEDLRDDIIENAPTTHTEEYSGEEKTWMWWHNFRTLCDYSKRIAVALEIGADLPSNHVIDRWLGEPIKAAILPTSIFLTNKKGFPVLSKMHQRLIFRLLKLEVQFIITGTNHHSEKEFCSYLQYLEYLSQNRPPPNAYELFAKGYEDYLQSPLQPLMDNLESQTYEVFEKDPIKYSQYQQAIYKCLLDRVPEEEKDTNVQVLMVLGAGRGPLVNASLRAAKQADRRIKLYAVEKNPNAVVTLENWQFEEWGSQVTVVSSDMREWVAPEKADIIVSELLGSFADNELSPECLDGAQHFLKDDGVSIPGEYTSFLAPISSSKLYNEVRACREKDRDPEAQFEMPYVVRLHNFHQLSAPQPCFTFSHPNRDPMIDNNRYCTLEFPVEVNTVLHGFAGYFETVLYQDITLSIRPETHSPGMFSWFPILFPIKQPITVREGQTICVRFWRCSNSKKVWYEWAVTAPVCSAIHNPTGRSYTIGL
T1 sequence (Q9BQA1 whole entry partner): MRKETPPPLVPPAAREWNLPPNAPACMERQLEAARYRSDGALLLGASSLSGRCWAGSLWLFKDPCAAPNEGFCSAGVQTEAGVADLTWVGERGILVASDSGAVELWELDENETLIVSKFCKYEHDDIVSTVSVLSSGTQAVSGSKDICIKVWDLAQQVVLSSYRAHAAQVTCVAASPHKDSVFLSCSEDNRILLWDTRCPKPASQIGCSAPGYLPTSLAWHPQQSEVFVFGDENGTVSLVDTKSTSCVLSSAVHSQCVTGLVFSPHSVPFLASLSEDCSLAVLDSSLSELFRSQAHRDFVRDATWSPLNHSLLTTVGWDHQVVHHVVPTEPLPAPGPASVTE

Regarding `Nc1ncnc2c1ncn2[C@@H]1O[C@H](Cn2cc(C[C@H](NC(=O)OCC3c4ccccc4-c4ccccc43)C(=O)O)nn2)[C@@H](O)[C@H]1O` [Compound 18, (S)-2-((((9H-fluoren-9-yl)methoxy)carbonyl)amino)-3-(1-(((2R,3S,4R,5R)-5-(6-amino-9H-purin-9-yl)-3,4-dihydroxytetrahydrofuran-2-yl)methyl)-1H-1,2,3-triazol-4-yl)propanoic acid], the remaining activity at 10 µM at PRMT1 is 91.2 ± 4.7%; on PRMT5 (setting [1]) it was 56 ± 6.4%.

By IC50 is commonly meant the concentration at which inhibition is half-maximal. As for `CC(=O)N[C@@H](CO)C(=O)NCC(=O)N[C@@H](Cc1cn(C[C@H]2O[C@@H](n3cnc4c(N)ncnc43)[C@H](O)[C@@H]2O)nn1)C(=O)NCC(=O)N[C@@H](CCCCN)C(N)=O` [Compound 30], the IC50 on PRMT1 was determined as 46.1 µM; against PRMT5, 45.6 µM.

Turning to `NCc1cn(C[C@H]2O[C@@H](n3cnc4c(N)ncnc43)[C@H](O)[C@@H]2O)nn1` [Compound 6, (2R,3R,4S,5R)-2-(6-amino-9H-purin-9-yl)-5-((4-(aminomethyl)-1H-1,2,3-triazol-1-yl)methyl)tetrahydrofuran-3,4-diol], the remaining activity at 10 µM on PRMT1 was 96.3 ± 8%; on PRMT5 (setting [1]), 61 ± 8%. For the same molecule, the IC50 at PRMT5 (setting [2]) was 1.2 µM.

Turning to `COCc1cn(C[C@H]2O[C@@H](n3cnc4c(N)ncnc43)[C@H](O)[C@@H]2O)nn1` [Compound 4, (2R,3R,4S,5R)-2-(6-amino-9H-purin-9-yl)-5-((4-(methoxymethyl)-1H-1,2,3-triazol-1-yl)methyl)tetrahydrofuran-3,4-diol], the IC50 is greater than 1000 µM at PRMT1 (setting [3]) and 144 µM on PRMT5 (setting [2]).

With `CCC(=O)Oc1ccc(CCc2cn(C[C@H]3O[C@@H](n4cnc5c(N)ncnc54)[C@H](O)[C@@H]3O)nn2)cc1OC(=O)C(C)C` [Compound 17], the remaining activity at 10 µM at PRMT1 stood at 91 ± 11%; on PRMT5 (setting [1]), 56 ± 10%.

Turning to `Cc1cccc(NC(=O)CNCc2cn(C[C@H]3O[C@@H](n4cnc5c(N)ncnc54)[C@H](O)[C@@H]3O)nn2)c1` [Compound 21, 2-(((1-(((2R,3S,4R,5R)-5-(6-amino-9H-purin-9-yl)-3,4-dihydroxytetrahydrofuran-2-yl)methyl)-1H-1,2,3-triazol-4-yl)methyl)amino)-N-(m-tolyl)acetamide], the remaining activity at 10 µM is 84 ± 55% on PRMT1 and 32 ± 3.3% on PRMT5 (setting [1]).

Take `Nc1ncnc2c1ncn2[C@@H]1O[C@H](Cn2cc(CNC(=O)OCc3ccccc3)nn2)[C@@H](O)[C@H]1O` [Compound 16]: the remaining activity at 10 µM at PRMT1 stood at 101 ± 10%; on PRMT5 (setting [1]), 80 ± 9.5%.

As to `CC(C)(C)OC(=O)NCC(=O)NCc1cn(C[C@H]2O[C@@H](n3cnc4c(N)ncnc43)[C@H](O)[C@@H]2O)nn1` [Compound 25], the remaining activity at 10 µM on PRMT1 worked out at 99.1 ± 13%; on PRMT5 (setting [1]), 72 ± 9.6%.

Turning to `Nc1ncnc2c1ncn2[C@@H]1O[C@H](Cn2cc(CCCC(=O)O)nn2)[C@@H](O)[C@H]1O` [Compound 12, 4-(1-(((2R,3S,4R,5R)-5-(6-amino-9H-purin-9-yl)-3,4-dihydroxytetrahydrofuran-2-yl)methyl)-1H-1,2,3-triazol-4-yl)butanoic acid], the remaining activity at 10 µM at PRMT1 stood at 99.3 ± 6.7%; on PRMT5 (setting [1]), 73 ± 12%. Further, the IC50 on PRMT5 (setting [2]) is greater than 400 µM.

For `Nc1ncnc2c1ncn2[C@@H]1O[C@H](Cn2cc(CCO)nn2)[C@@H](O)[C@H]1O` [Compound 5, (2R,3R,4S,5R)-2-(6-amino-9H-purin-9-yl)-5-((4-(2-hydroxyethyl)-1H-1,2,3-triazol-1-yl)methyl)tetrahydrofuran-3,4-diol], the IC50 is greater than 1000 µM on PRMT1 (setting [3]) and 195 µM on PRMT5 (setting [2]).

With `Nc1ncnc2c1ncn2[C@@H]1O[C@H](Cn2ccnn2)[C@@H](O)[C@H]1O` [Compound 2, (2R,3S,4R,5R)-2-((1H-1,2,3-triazol-1-yl)methyl)-5-(6-amino-9H-purin-9-yl)tetrahydrofuran-3,4-diol], the IC50 at PRMT1 (setting [3]) was greater than 1000 µM; at PRMT5 (setting [2]) it was 27 µM.

As to `Nc1ncnc2c1ncn2C1OC(Cn2cc(CCC(N)c3ccccc3)nn2)C(O)C1O` (stereo not drawn) [Compound 10], the remaining activity at 10 µM at PRMT1 was 103 ± 5.6%; on PRMT5 (setting [1]) it was 71 ± 17%.

With `CC(C)(C)OC(=O)NCCS(=O)(=O)Cc1cn(C[C@H]2O[C@@H](n3cnc4c(N)ncnc43)[C@H](O)[C@@H]2O)nn1` [Compound 28], the figures for the remaining activity at 10 µM at PRMT1 and on PRMT5 (setting [1]) were 77 ± 23% and 76 ± 11%, respectively.

With `COC(=O)c1ccc(CNCc2cn(C[C@H]3O[C@@H](n4cnc5c(N)ncnc54)[C@H](O)[C@@H]3O)nn2)cc1` [Compound 22, Methyl 4-((((1-(((2R,3S,4R,5R)-5-(6-amino-9H-purin-9-yl)-3,4-dihydroxytetrahydrofuran-2-yl)methyl)-1H-1,2,3-triazol-4-yl)methyl)amino)methyl)benzoate], the remaining activity at 10 µM turned out to be 94.2 ± 2.2% on PRMT1 and 30 ± 1.7% on PRMT5 (setting [1]). Also, the IC50 on PRMT1 (setting [3]) was 130 µM; at PRMT5 (setting [2]), 1.3 µM.

For `Nc1ncnc2c1ncn2[C@@H]1O[C@H](Cn2cc(-c3ccccc3)nn2)[C@@H](O)[C@H]1O` [Compound 14, (2R,3R,4S,5R)-2-(6-amino-9H-purin-9-yl)-5-((4-phenyl-1H-1,2,3-triazol-1-yl)methyl)tetrahydrofuran-3,4-diol], the results for the remaining activity at 10 µM at PRMT1 and at PRMT5 (setting [1]) were 90.1 ± 5.7% and 51 ± 5.7%, respectively. The IC50 on PRMT5 (setting [2]) is 2.6 µM.

Consider `Nc1ncnc2c1ncn2[C@@H]1O[C@H](Cn2cc(CNC(=O)Nc3ccc(Cl)cc3)nn2)[C@@H](O)[C@H]1O` [Compound 23], for which the remaining activity at 10 µM at PRMT1 was found to be 91.8 ± 16%; on PRMT5 (setting [1]), 70 ± 5.6%.

In the case of `Nc1ncnc2c1ncn2[C@@H]1O[C@H](Cn2cc(CO)nn2)[C@@H](O)[C@H]1O` [Compound 3, (2R,3R,4S,5R)-2-(6-amino-9H-purin-9-yl)-5-((4-(hydroxymethyl)-1H-1,2,3-triazol-1-yl)methyl)tetrahydrofuran-3,4-diol], the half-inhibitory concentration (IC50) at PRMT1 (setting [3]) is greater than 1000 µM; on PRMT5 (setting [2]) it was 4.4 µM.
